Results reported in PMC5114558, “Reader domain specificity and lysine demethylase-4 family function” (Nature Communications, 2016).
Like-named read-outs stand apart in the source and are kept apart here. Non-standard residues stand in square brackets, D forms with d. Residues, ends and D or L forms follow the SMILES beside them. *: point of attachment. 5FAM = O=C1OC2(c3ccc(O)cc3Oc3cc(O)ccc32)c2ccc(C(=O)*)cc21; Lys(Me3) = C[N+](C)(C)CCCC[C@H](N)C(=O)O

Molecular target: T1, KDM4A DTD (human KDM4A double tudor domain, 895–1011aa) (Homo sapiens, UniProt O75164)
T1 construct: DNA encoding DTDs (KDM4A 895–1011aa, KDM4B 917–1031aa and KDM4C 877–991aa); (His)6-HaloTag (pFN29) or (His)6 (pET28b); made in house; host or cells: Escherichia coli BL21 (DE3)
T1 sequence (O75164 895-1011): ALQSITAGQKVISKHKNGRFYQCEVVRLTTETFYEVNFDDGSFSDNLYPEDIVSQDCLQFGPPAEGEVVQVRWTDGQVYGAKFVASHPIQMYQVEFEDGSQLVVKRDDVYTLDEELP
Experiment: fluorescence polarization (FP) binding, KDM4A-DTD wild-type
Source text: KDM4 protein sequences used in this study correspond to Uniprot ID: O75164 (human KDM4A, isoform 1), O94953 (human KDM4B, isoform1) and Q9H3R0 (human KDM4C, isoform1). Plasmid encoding KDM4A DTD was kindly provided by R-M Xu (Chinese Academy of Sciences). Complementary DNA encoding human KDM4B-DTD was synthesized (Integrated DNA Technologies). Plasmid containing cDNA of full-length KDM4C (clone ID: HsCD00341594) was obtained from Harvard Plasmid Repository. DNA encoding DTDs (KDM4A 895–1011aa, KDM4B 917–1031aa and KDM4C 877–991aa) were cloned into pFN29 (Promega) with N-terminal (His)6-HaloTag or pET28b with N-terminal (His)6 Tag using In-Fusion HD cloning kit (Clontech). Plasmids encoding Xenopus laevis core histones were a generous gift of K. Luger (University of Colorado-Boulder). Site-directed mutagenesis was performed with Q5 Site-Directed Mutagenesis Kit (New England Biolabs).
Peptide sequences are given in Supplementary Table 1. […] A no-protein control with only peptide probe was included. Polarization at each concentration was measured as triplicates in 384-well polystyrene black microplates (Thermo Fisher Scientific 262260) by Biotek Synergy H4 multimode plate reader (light source: xenon flash, offset from top: 7 mm, sensitivity: 60%, excitation: 485/20 nm, emission: 528/20 nm, both parallel and perpendicular, normal read speed). Fraction bound (Fb) at each concentration was calculated based on the corresponding polarization values (P): Fbc=(Pc−Pmin)/(Pmax−Pmin), where Pmin is the polarization value of no-protein control and Pmax is the polarization value of the saturation value for that peptide. Dissociation constants (Kd) were derived by KaleidaGraph, Synergy Software (version 4.1.3) using the following equation: Fb=[protein]/([protein]+Kd).

[1] = Fig. 2e,g,i,j and Fig. 4g,i, pH 7.4, ± s.d. from three experimental replicates, read-out: binding affinity, KDM4A-DTD wild-type (WT)

| SMILES | Kd [1] [µM] | further results |
| --- | --- | --- |
| CNCCCC[C@H](NC(=O)[C@@H](NC(=O)[C@H](C)NC(=O)[C@H](CC(C)C)NC(=O)[C@H](CCC(N)=O)NC(=O)[C@H](CCCCN)NC(=O)[C@H](CCCNC(=N)N)NC(=O)c1ccc2c(c1)C(=O)OC21c2ccc(O)cc2Oc2cc(O)ccc21)[C@@H](C)O)C(=O)N[C@@H](C)C(=O)N[C@@H](C)C(=O)N[C@@H](CCCNC(=N)N)C(=O)N[C@@H](CCCCN)C(=O)N[C@@H](CO)C(=O)N[C@@H](C)C(=O)N1CCC[C@H]1C(=O)N[C@@H](C)C(=O)N[C@H](C(=O)O)[C@@H](C)O [H3K23me1] | 98.6 ± 5.4 | – |
| CC(C)C[C@H](NC(=O)[C@H](CCC(N)=O)NC(=O)[C@H](CCCCN)NC(=O)[C@H](CCCNC(=N)N)NC(=O)c1ccc2c(c1)C(=O)OC21c2ccc(O)cc2Oc2cc(O)ccc21)C(=O)N[C@@H](C)C(=O)N[C@H](C(=O)N[C@@H](CCCC[N+](C)(C)C)C(=O)N[C@@H](C)C(=O)N[C@@H](C)C(=O)N[C@@H](CCCNC(=N)N)C(=O)N[C@@H](CCCCN)C(=O)N[C@@H](CO)C(=O)N[C@@H](C)C(=O)N1CCC[C@H]1C(=O)N[C@@H](C)C(=O)N[C@H](C(=O)O)[C@@H](C)O)[C@@H](C)OP(=O)(O)O [H3T22phK23me3] | 83.7 ± 4.1 | – |
| CC(C)C[C@H](NC(=O)[C@H](CCC(N)=O)NC(=O)[C@H](CCCCN)NC(=O)[C@H](CCCNC(=N)N)NC(=O)c1ccc2c(c1)C(=O)OC21c2ccc(O)cc2Oc2cc(O)ccc21)C(=O)N[C@@H](C)C(=O)N[C@H](C(=O)N[C@@H](CCCCN(C)C)C(=O)N[C@@H](C)C(=O)N[C@@H](C)C(=O)N[C@@H](CCCNC(=N)N)C(=O)N[C@@H](CCCCN)C(=O)N[C@@H](CO)C(=O)N[C@@H](C)C(=O)N1CCC[C@H]1C(=O)N[C@@H](C)C(=O)N[C@H](C(=O)O)[C@@H](C)O)[C@@H](C)O [H3K23me2] | – | Kd (pH 7.4, read-out: Kd, KDM4A-DTD wild-type): 9.06 µM |
| CC(C)C[C@H](NC(=O)[C@H](CCC(N)=O)NC(=O)[C@H](CCCCN)NC(=O)[C@H](CCCNC(=N)N)NC(=O)[C@@H]1CCCN1C(=O)[C@H](C)NC(=O)[C@H](CCCC[N+](C)(C)C)NC(=O)CNC(=O)CNC(=O)[C@@H](NC(=O)[C@H](CO)NC(=O)[C@H](CCCCN)NC(=O)[C@H](CCCNC(=N)N)NC(=O)[C@H](C)NC(=O)c1ccc2c(c1)C(=O)OC21c2ccc(O)cc2Oc2cc(O)ccc21)[C@@H](C)O)C(=O)N[C@@H](C)C(=O)N[C@H](C(=O)N[C@@H](CCCCN)C(=O)O)[C@@H](C)O [H3K14me3] (5FAM-ARKSTGG[Lys(Me3)]APRKQLATK-OH) | – | Kd (matrix Fig. 1d and Fig. 3c, pH 7.4, read-out: binding affinity (Kd), KDM4A DTD wild-type): 109 µM |
| CC(C)C[C@H](NC(=O)[C@H](CCC(N)=O)NC(=O)[C@H](CCCCN)NC(=O)[C@H](CCCNC(=N)N)NC(=O)c1ccc2c(c1)C(=O)OC21c2ccc(O)cc2Oc2cc(O)ccc21)C(=O)N[C@@H](C)C(=O)N[C@H](C(=O)N[C@@H](CCCC[N+](C)(C)C)C(=O)N[C@@H](C)C(=O)N[C@@H](C)C(=O)N[C@@H](C)C(=O)N[C@@H](CCCCN)C(=O)N[C@@H](CO)C(=O)N[C@@H](C)C(=O)N1CCC[C@H]1C(=O)N[C@@H](C)C(=O)N[C@H](C(=O)O)[C@@H](C)O)[C@@H](C)O [H3K23me3R26A] (5FAM-RKQLAT[Lys(Me3)]AAAKSAPAT-OH) | 32.3 ± 1.8 | – |
